Source: patent publication US9796711B2, “Substituted pyrazolo[3,4-b]pyridin-6-carboxylic acids and method of use” (AbbVie S.àr.l., priority 2015, dated 2017)

What was measured:
ΔF508-CFTR [1] = target: T1, ΔF508-CFTR (Homo sapiens, UniProt P13569, DEL508-508); experiment: CFTR cell surface levels using HRP-tagged ΔF508-CFTR expressing CFBE cells, in the presence of a co-corrector; type: cell-based; conditions: HRP-tagged ΔF508-CFTR expressing CFBE cells, in the presence of 3 μM co-corrector; for EC50: read-out: EC50
T1 construct: host or cells: CFBE41o-, doxycycline-inducible
T1 sequence (P13569 with tags, fused parts or gaps DEL508-508): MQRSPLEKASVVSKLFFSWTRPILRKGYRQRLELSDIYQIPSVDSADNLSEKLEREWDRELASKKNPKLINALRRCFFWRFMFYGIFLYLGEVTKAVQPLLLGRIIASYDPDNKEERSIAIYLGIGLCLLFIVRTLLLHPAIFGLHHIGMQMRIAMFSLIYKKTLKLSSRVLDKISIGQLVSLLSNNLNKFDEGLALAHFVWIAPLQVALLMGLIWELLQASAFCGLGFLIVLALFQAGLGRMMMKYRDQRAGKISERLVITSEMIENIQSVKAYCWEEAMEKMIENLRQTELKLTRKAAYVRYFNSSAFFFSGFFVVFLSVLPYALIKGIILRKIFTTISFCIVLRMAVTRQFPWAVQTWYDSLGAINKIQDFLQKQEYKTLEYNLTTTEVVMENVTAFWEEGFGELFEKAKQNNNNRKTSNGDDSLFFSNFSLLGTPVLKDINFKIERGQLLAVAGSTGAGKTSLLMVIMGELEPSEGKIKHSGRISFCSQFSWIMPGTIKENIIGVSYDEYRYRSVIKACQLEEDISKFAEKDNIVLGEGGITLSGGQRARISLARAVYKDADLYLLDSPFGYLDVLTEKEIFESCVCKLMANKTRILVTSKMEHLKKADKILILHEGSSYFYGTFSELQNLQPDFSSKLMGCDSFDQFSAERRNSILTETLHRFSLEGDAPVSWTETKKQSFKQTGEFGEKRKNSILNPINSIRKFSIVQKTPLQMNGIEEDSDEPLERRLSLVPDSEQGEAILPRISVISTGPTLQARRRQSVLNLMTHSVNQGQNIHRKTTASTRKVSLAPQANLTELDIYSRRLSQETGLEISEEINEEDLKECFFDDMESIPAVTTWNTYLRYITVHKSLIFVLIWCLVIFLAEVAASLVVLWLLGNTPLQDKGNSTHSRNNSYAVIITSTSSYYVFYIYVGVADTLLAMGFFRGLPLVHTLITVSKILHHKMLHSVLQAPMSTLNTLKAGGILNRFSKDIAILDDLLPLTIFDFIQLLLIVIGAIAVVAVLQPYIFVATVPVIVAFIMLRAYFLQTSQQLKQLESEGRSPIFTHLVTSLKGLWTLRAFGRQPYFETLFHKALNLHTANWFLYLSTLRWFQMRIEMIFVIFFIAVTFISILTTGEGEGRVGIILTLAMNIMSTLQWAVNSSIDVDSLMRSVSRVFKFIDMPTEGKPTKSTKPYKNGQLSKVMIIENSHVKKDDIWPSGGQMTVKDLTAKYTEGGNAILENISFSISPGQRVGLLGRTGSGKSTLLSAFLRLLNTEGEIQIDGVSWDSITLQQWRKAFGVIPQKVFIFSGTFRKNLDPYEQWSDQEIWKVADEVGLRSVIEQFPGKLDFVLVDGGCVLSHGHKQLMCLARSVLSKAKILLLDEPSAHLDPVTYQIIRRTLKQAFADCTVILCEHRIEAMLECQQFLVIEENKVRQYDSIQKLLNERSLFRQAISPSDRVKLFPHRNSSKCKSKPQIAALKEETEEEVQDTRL
Outline: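 Cells were seeded with 0.5 μg/mL doxycycline and held 68 h at 37 °C. Test compounds plus 3 μM co-corrector (final 0.1% DMSO) were then added for 20 h at 33 °C. Washed cells received HRP substrate, and luminescence was normalized between DMSO and 3 μM co-corrector controls.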

ΔF508-CFTR [2] = target: T1, ΔF508-CFTR; experiment: CFTR cell surface levels using HRP-tagged ΔF508-CFTR expressing CFBE cells, intrinsic corrector capacity; type: cell-based; conditions: HRP-tagged ΔF508-CFTR expressing CFBE cells, intrinsic corrector capacity (no co-corrector), 33° C., 20 hours; for EC50: read-out: EC50
Outline: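 Here the cells express ΔF508-CFTR with horseradish peroxidase inserted in extracellular loop 4, so only rescued channel at the surface gives luminescent signal. Compounds act on their own, 20 h at the reduced temperature of 33 °C; values are percent activity relative to DMSO and a 3 μM corrector.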

| Compound | % Activation (ΔF508-CFTR [1]) [%] | EC50 (ΔF508-CFTR [1]) [nM] | % Activation (ΔF508-CFTR [2]) [%] | EC50 (ΔF508-CFTR [2]) [nM] |
| --- | --- | --- | --- | --- |
| COC1(C)CCN(c2cc(C(=O)O)nc3c2c(C(C)C)nn3-c2ccc(F)cc2)CC1 [compound 397, 1-(4-fluorophenyl)-4-(4-methoxy-4-methylpiperidin-1-yl)-3-(propan-2-yl)-1H-pyrazolo[3,4-b]pyridine-6-carboxylic acid] | 217.3 | 299 | 73.11 | 645 |
| CC(C)c1nn(-c2ccc(F)cc2)c2nc(C(=O)O)cc(N3CCC4(CCO4)CC3)c12 [compound 398, 1-(4-fluorophenyl)-4-(1-oxa-7-azaspiro[3.5]nonan-7-yl)-3-(propan-2-yl)-1H-pyrazolo[3,4-b]pyridine-6-carboxylic acid] | 275.7 | 737 | 96.49 | 1290 |
| CC(C)c1nn(-c2ccc(F)cc2)c2nc(C(=O)O)cc(N3CCCC(C(F)F)C3)c12 (stereo not drawn) [compound 399, 4-[3-(difluoromethyl)piperidin-1-yl]-1-(4-fluorophenyl)-3-(propan-2-yl)-1H-pyrazolo[3,4-b]pyridine-6-carboxylic acid] | 336.55 | 475 | 137.6 | 824 |
| CC(C)c1nn(-c2ccc(F)cc2)c2nc(C(=O)O)cc(N3CC4(CCCOC4)C3)c12 [compound 400, 1-(4-fluorophenyl)-4-(6-oxa-2-azaspiro[3.5]nonan-2-yl)-3-(propan-2-yl)-1H-pyrazolo[3,4-b]pyridine-6-carboxylic acid] | 283.65 | 980 | 111.35 | 1350 |
| CC(C)c1nn(-c2ccc(F)cc2)c2nc(C(=O)O)cc(N3CCC4(CCCO4)CC3)c12 [compound 401, 1-(4-fluorophenyl)-4-(1-oxa-8-azaspiro[4.5]decan-8-yl)-3-(propan-2-yl)-1H-pyrazolo[3,4-b]pyridine-6-carboxylic acid] | 306.07 | 653 | 136.97 | 1100 |
| CC(C)c1nn(C2CCCCC2)c2nc(C(=O)O)cc(C3=CC(C)(C)OC(C)(C)C3)c12 [compound 402, 1-cyclohexyl-3-(propan-2-yl)-4-(2,2,6,6-tetramethyl-3,6-dihydro-2H-pyran-4-yl)-1H-pyrazolo[3,4-b]pyridine-6-carboxylic acid] | 214.5 | 1110 | 43.815 | 715 |
| COCCC1CCN(c2cc(C(=O)O)nc3c2c(C2CCC2)nn3-c2ccccc2)CC1 [compound 403, 3-cyclobutyl-4-[4-(2-methoxyethyl)piperidin-1-yl]-1-phenyl-1H-pyrazolo[3,4-b]pyridine-6-carboxylic acid] | 507.25 | 311 | 293.4 | 408 |
| O=C(O)c1cc(N2CC3(CCCC3)C2)c2c(C3CCC3)nn(-c3ccccc3)c2n1 [compound 404, 4-(2-azaspiro[3.4]octan-2-yl)-3-cyclobutyl-1-phenyl-1H-pyrazolo[3,4-b]pyridine-6-carboxylic acid] | 275.95 | 849 | 104.91 | 910 |
| COCC1CCN(c2cc(C(=O)O)nc3c2c(C2CCC2)nn3-c2ccccc2)CC1 [compound 405, 3-cyclobutyl-4-[4-(methoxymethyl)piperidin-1-yl]-1-phenyl-1H-pyrazolo[3,4-b]pyridine-6-carboxylic acid] | 512.4 | 226 | 298.75 | 347 |
| O=C(O)c1cc(N2CC3CC3C2)c2c(C3CCC3)nn(-c3ccccc3)c2n1 (stereo not drawn) [compound 406, 4-(3-azabicyclo[3.1.0]hexan-3-yl)-3-cyclobutyl-1-phenyl-1H-pyrazolo[3,4-b]pyridine-6-carboxylic acid] | 359.55 | 641 | 182.5 | 823 |
| O=C(O)c1cc(OCC2CCCCC2)c2c(C3CCC3)nn(-c3ccccc3)c2n1 [compound 407, 3-cyclobutyl-4-(cyclohexylmethoxy)-1-phenyl-1H-pyrazolo[3,4-b]pyridine-6-carboxylic acid] | 323.95 | 662 | 125.25 | 925 |
| O=C(O)c1cc(N2CCCCC2)c2c(C3CCC3)nn(-c3ccccc3)c2n1 [compound 408, 3-cyclobutyl-1-phenyl-4-(piperidin-1-yl)-1H-pyrazolo[3,4-b]pyridine-6-carboxylic acid] | 346.95 | 617 | 141.15 | 932 |
| O=C(O)c1cc(N2CC3(CCCCC3)C2)c2c(C3CCC3)nn(-c3ccccc3)c2n1 [compound 409, 4-(2-azaspiro[3.5]nonan-2-yl)-3-cyclobutyl-1-phenyl-1H-pyrazolo[3,4-b]pyridine-6-carboxylic acid] | 249.3 | 1110 | 75.39 | 1070 |
| N#CC1CCN(c2cc(C(=O)O)nc3c2c(C2CCC2)nn3-c2ccccc2)CC1 [compound 410, 4-(4-cyanopiperidin-1-yl)-3-cyclobutyl-1-phenyl-1H-pyrazolo[3,4-b]pyridine-6-carboxylic acid] | 317.5 | 228 | 155.63 | 557 |
| CS(=O)(=O)C1CCN(c2cc(C(=O)O)nc3c2c(C2CCC2)nn3-c2ccccc2)CC1 [compound 411, 3-cyclobutyl-4-[4-(methanesulfonyl)piperidin-1-yl]-1-phenyl-1H-pyrazolo[3,4-b]pyridine-6-carboxylic acid] | 456 | 976 | 280.85 | 3340 |
| COC1CCN(c2cc(C(=O)O)nc3c2c(C(C)C)nn3-c2ccnc(N3CCCC3)c2)CC1 [compound 412, 4-(4-methoxypiperidin-1-yl)-3-(propan-2-yl)-1-[2-(pyrrolidin-1-yl)pyridin-4-yl]-1H-pyrazolo[3,4-b]pyridine-6-carboxylic acid] | 387.2 | 307 | 215.6 | 460 |
| N#CC1CCN(c2ccc(-c3cc(C(=O)O)nc4c3c(C3CCC3)nn4-c3ccnc(N4CCCC4)c3)cn2)CC1 [compound 413, 4-[6-(4-cyanopiperidin-1-yl)pyridin-3-yl]-3-cyclobutyl-1-[2-(pyrrolidin-1-yl)pyridin-4-yl]-1H-pyrazolo[3,4-b]pyridine-6-carboxylic acid] | 392.2 | 338 | 216.65 | 527 |
| O=C(O)c1cc(OCCC2CCOCC2)c2c(C3CCC3)nn(-c3ccccc3)c2n1 [compound 414, 3-cyclobutyl-4-[2-(oxan-4-yl)ethoxy]-1-phenyl-1H-pyrazolo[3,4-b]pyridine-6-carboxylic acid] | 295.15 | 373 | 120.3 | 692 |
| O=C(O)c1cc(OC[C@@H](F)C2CCOCC2)c2c(C3CCC3)nn(-c3ccccc3)c2n1 [compound 415, 3-cyclobutyl-4-[(2S)-2-fluoro-2-(oxan-4-yl)ethoxy]-1-phenyl-1H-pyrazolo[3,4-b]pyridine-6-carboxylic acid] | 334.35 | 249 | 168.85 | 487 |
| N#CC1CCN(c2ccc(-c3cc(C(=O)O)nc4c3c(C3CCC3)nn4-c3ccnc(N4CCOCC4)c3)cn2)CC1 [compound 416, 4-[6-(4-cyanopiperidin-1-yl)pyridin-3-yl]-3-cyclobutyl-1-[2-(morpholin-4-yl)pyridin-4-yl]-1H-pyrazolo[3,4-b]pyridine-6-carboxylic acid] | 369.5 | 785 | 179.1 | 1250 |
| O=C(O)c1cc(OCC2CCOCC2)c2c(C3CCC3)nn(-c3ccccc3)c2n1 [compound 417, 3-cyclobutyl-4-[(oxan-4-yl)methoxy]-1-phenyl-1H-pyrazolo[3,4-b]pyridine-6-carboxylic acid] | 322 | 318 | 134.8 | 546 |
| COCC1CN(c2cc(C(=O)O)nc3c2c(C2CCC2)nn3-c2ccccc2)C1 [compound 418, 3-cyclobutyl-4-[3-(methoxymethyl)azetidin-1-yl]-1-phenyl-1H-pyrazolo[3,4-b]pyridine-6-carboxylic acid] | 342.25 | 598 | 144.95 | 1220 |
| O=C(O)c1cc(N2CCCC3(CC3)C2)c2c(C3CCC3)nn(-c3ccccc3)c2n1 [compound 419, 4-(5-azaspiro[2.5]octan-5-yl)-3-cyclobutyl-1-phenyl-1H-pyrazolo[3,4-b]pyridine-6-carboxylic acid] | 293.9 | 509 | 136 | 983 |
| N#CC1CCN(c2ccc(-c3cc(C(=O)O)nc4c3c(C3CC(F)(F)C3)nn4-c3ccccc3)cn2)CC1 [compound 420, 4-[6-(4-cyanopiperidin-1-yl)pyridin-3-yl]-3-(3,3-difluorocyclobutyl)-1-phenyl-1H-pyrazolo[3,4-b]pyridine-6-carboxylic acid] | 411.25 | 289 | 211.15 | 534 |
